Test [1] deals with MSCs. Briefly: Capture of MSCs from bone marrow aspirate, colony forming units. It is filed as cell-based, human. As to conditions: biotinylated peptide, streptavidin-coated MILTENYI beads; compared to CD105 and MSCA-1 antibody beads. The procedure: This experiment was performed to examine the ability of cell binding peptide SEQ ID NO: 4 to capture MSCs directly from bone marrow aspirate in comparison to two separate antibodies against the CD105 I antigen (CD105) and the MSCA-1 stem cell antigen (MSCA-1). This experiment employed biotinylated peptides with streptavidin-coated […] magnetic beads. The peptides were biotinylated as described herein at Example 2. […] For the antibody capture experiment, magnetic beads having covalently attached CD105 or MSCA-1 antibody were employed ([…]). Prior to incubation with the peptides and antibodies, bone marrow aspirate (BMA) was mixed with 5 volumes of 10 mM ammonium chloride for 1-2 min at room temperature to lyse red blood cells. The lysate was centrifuged for 5 min at 300×g and the supernatant discarded. The cell pellet was washed with wash buffer (PBS+0.5% bovine serum albumin+0.5 mM EDTA) and cells were resuspended in […] peptide at a concentration of 10^8 per mL. For peptide binding studies, the cell suspension was incubated with the biotinylated peptides for 30 min at 4° C. to allow for binding. After incubation, cells were spun down at 300×g for 5 min, and peptide solution was aspirated. Cells were then rinsed twice with wash buffer, with centrifugation between washes. […] Colony forming units (CFUs) were counted after 14 days in culture. […]

In a further test the test system is UASMCs. Briefly: Biotinylated peptide binding to endothelial and other cells by flow cytometry. It counts as cell-based. The conditions noted are these: biotinylated peptide 10 μM, 30 min at 4° C. The procedure:
The synthetic biotinylated binding peptide SEQ ID NO: 4 was further examined for its ability to bind endothelial cells compared to other cell types (see FIG. 16). […] ECFCs are clonally expanded cells isolated from human umbilical cord blood, and are considered highly proliferative endothelial progenitor cells (EPCs) based on their clonogenic and proliferative potential. In another experiment, binding peptide SEQ ID NO: 4 was assayed for its ability to selectively isolate endothelial cells versus smooth muscle cells in the presence of whole blood. HUVECs or UASMCs were incubated in the presence of medium containing 20% whole blood and binding peptide SEQ ID NO: 4-conjugated magnetic beads (via biotin-SA) for 30 min. The solutions containing the bead-peptide-cell complexes were then passed through a […] LS column in a magnetic field. The column was washed, and the remaining peptide-bound cells were then released from the magnetic field and counted.

The subject of the next test is human MSCs. Kind of test: Capture of cultured MSCs with peptide on […] Streptavidin microbeads in LS columns. It counts as cell-based. As to conditions: 160,000 cultured human MSCs, peptide 20 μM on Streptavidin microbeads, LS column. The procedure: In this experiment the ability of the biotinylated cell binding peptide SEQ ID NO: 4 to capture human MSCs from a homogeneous cultured cell population was examined. The cell binding peptide SEQ ID NO: 4 was biotinylated as described herein at Example 2. The cell binding peptide SEQ ID NO: 4, and a non-binding control peptide, were added to separate 300 μl volumes of […] BIOTEC Streptavidin microbeads at a concentration of 20 μM. These beads are made from iron filings, coated with a dextran coating which is functionalized with streptavidin moieties. Peptide was incubated with beads for 45 min on ice. The 300 μl of peptide coated microbeads were added to pre-equilibrated LS columns outside of the magnetic field to evenly distribute the magnetic beads throughout the columns. Columns were then placed into a magnetic field, and excess peptide was washed away with buffer while retaining the peptide coated microbeads. Cultured and expanded human MSCs from bone marrow aspirate (160,000 cells; LONZA) were added to each LS column and allowed to pass through by gravity flow. Flowthrough was collected and cycled through the columns 5 times, after which the columns were washed with 5 ml buffer. […] The collected flowthrough with 5 ml wash and eluted cells were spun down, resuspended in a smaller volume, and counted by hemacytometer (see FIG. 17). […]

The subject of test [2] is MSCs. Kind of test: Adipocyte differentiation of peptide-captured MSCs (Oil Red O). The conditions noted are these: 21 days in adipocyte differentiation medium. It is filed as cell-based, human. The procedure:
Adipocyte differentiation. After capture of MSCs using cell binding peptide SEQ ID NO: 4 with the […] magnetic system according to Example 6, the ability of the captured cells to differentiate into an adipocyte lineage was examined. The MSCs present in the […] column eluants (see Example 6) were cultured for 21 days in complete medium (DMEM, 10% FBS, 100 units/mL penicillin, 100 μg/mL streptomycin, and 2 mM glutamine) supplemented with 0.5 mM isobutyl methylxanthine, 1 μM dexamethasone, 10 μM insulin, 200 μM indomethacin, and 1% antibiotic/antimycotic. Following the 21 day incubation, the cells were fixed in 4% paraformaldehyde in PBS for 15 minutes, washed in 60% isopropanol for 5 minutes, and stained with Oil Red 0 (SIGMA) for 10 minutes to determine the extent of adipogenesis (see FIG. 26, panels A (undifferentiated MSCs) and panel B (adipocyte differentiated MSCs)). The image of the adipose differentiated cells (FIG. 26, panel B) contains a larger magnification inset where the lipid vacuoles are clearly visible.

The subject of a further test is HUVECs. Kind of test: Endothelial cell phenotype and anti-thrombogenic protein expression on peptide-modified collagen. The conditions noted are these: HUVECs cultured 24 hours; t-PA and 6-keto Prostaglandin F1a ELISA, flow cytometry. It counts as cell-based, human. The procedure:
Once immobilized on a vascular graft, endothelial cells must retain their characteristic properties of promoting endothelialization. Therefore, the phenotype, viability, and anti-thrombogenic protein expression profiles were evaluated for endothelial cells in the presence of collagen modified with the endothelial cell binding peptide SEQ ID NO: 4 (generated according to Example 7 using BS^3 reagent). […] Specifically, HUVECs were plated on SEQ ID NO: 4 peptide-modified collagen, collagen with 10 μM free SEQ ID NO: 4 peptide or collagen alone for 24 hours. Flow cytometry was performed using a BD […], and ELISAs were performed according to manufacturers instructions. (FIGS. 22A & 22B). Tissue-type Plasminogen Activator (t-PA) and 6-keto Prostaglandin F1a protein expression levels secreted in this assay are aligned with other reports on cultured HUVECS (Kimura and Yokoi-Hayashi, Biochim Biophys Acta, 1996, 1310:1-4; Merhi-Soussi et al., J Leukoc Biol, 2000, 68:881-9).
(In an ELISA, binding on a coated surface is turned into a signal by an enzyme label.)

Ends that are not written are not given here.

With “SSFWDVCQGDGTCYGGGSR (SSFWDVCQGDGTCYGGGSRGSSG-{K(biotin)}; cysteine pairing not given here) [SEQ ID NO: 4, tested biotinylated with GSSGK(biotin) or other spacer at the C-terminus]”, the “MSC capture from bone marrow aspirate (CFUs after 14 days in culture)” value in the test with MSCs [1] was “as efficient as capture by either of the CD105 or MSCA-1 antibodies”. For the same sequence, in the test with UASMCs, the “cross-reactivity with UASMCs” value is on record as “weakly”. Moreover, in the test on human MSCs, the “capture of MSCs” value is “approximately 70%”. Besides, the “adipocyte differentiation of captured MSCs” value with MSCs [2] is listed as “adipogenesis pathway remains intact”. The “endothelial cell phenotype and anti-thrombogenic protein secretion” value in the test with HUVECs was “maintained their endothelial cell phenotype and their ability to secrete anti-thrombogenic proteins”.

The values are drawn from patent US20110117168A1, “METHODS AND COMPOSITIONS FOR SOFT TISSUE REPAIR” (AFFINERGY, INC., priority 2009, published 2011).
